Measurements from patent US20130210034A1, “COMPLEX PHOSPHOPROTEIN ACTIVATION PROFILES” (BECKMAN COULTER, INC., priority 2005, published 2013).
“And” between values parts separate entries of the source, which are not always exact repeats. Equal entries are not always repeated.

Experiments:
Assay in all cases: Cytokine-stimulated phosphorylation in immunophenotypically defined cell populations from healthy donor BM (flow cytometry);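 as to pAKT S/N ratio: Phosphoprotein MFI normalized to lymphocyte MFI as internal negative control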;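 as to pERK S/N ratio: Phosphoprotein MFI normalized to lymphocyte MFI as internal negative control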
Type in all cases: cell-based, human
[1] = system: pAKT; details: for pAKT Percent (%) Responding Cells, Mean / pAKT S/N ratio: healthy donor BM, mean ± SD;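 as to pAKT S/N ratio: Phosphoprotein MFI normalized to lymphocyte MFI as internal negative control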
Description: (§1) Bone marrow (BM) samples were collected in 7.5 mL Iscove's modified Dulbecco's medium (IMDM) supplemented with 100U penicillin, 0.01 mg/mL streptomycin, and 70 μg/mL heparin sodium salt from 10 patients undergoing hip replacement surgery, who were otherwise healthy. These patients were from a pool of surgery patients, age 49 to 77, and represented […] patients. […] These BM samples were rinsed twice with IMDM to release cells, filtered using a 100 μm Nylon cell strainer to remove marrow particles, and centrifuged for at RT fro 7 minutes at 200 g. The cell pellet was washed twice with sterile IMDM to remove traces of fat and re-suspended in IMDM to a concentration of 3×10^7 cells/mL.
(§2) To assess the signal transduction response after growth factor simulation, a series comprising two sets of tubes including about 3×10^6 cells/100 μL were incubated at 37° C. for 30 minutes. After this pre-incubation period, tubes with then processes with either a stimulant or inhibitor. […] To examine the effects of protein phosphorylation inhibition, tubes were incubated with an inhibitor cocktail comprising 100 μM/100 μL UO126, 1 μM/100 μL LY294002, and 1 μM/100 μL rapamycin. One unstimulated tube receiving no stimulant or inhibitor was processed to assess basal levels of phospho-protein expression. After stimulation the cells were immediately fixed in 10% formaldehyde solution at 37° C. Pre-labeling with CD13, CD16 and CD64 antibodies was carried out 20 minutes prior to formaldehyde fixation. After fixation, one set of tubes was permeabilized without methanol for pAKT, pERK and pS6 staining and the other for 80% methanol permeabilized for pSTAT3 and pSTAT5 staining. After permeablization, the cells were washed in PBS with 2% BSA and blocked by re-suspended in 75 μL of PBS comprising 25% heat inactivated normal mouse serum, 25% normal rabbit serum. To stain cells with fluorescent conjugated monoclonal antibodies, samples were incubated on ice for 45 minutes in 100 μL of an antibody staining solution including either: 1) CD15-Pacific Orange, CD34-Phycoerythrin-Texas Red, CD117-Phycoerythrin-Cyanin 5.5, CD45-Allophycocyanin-Alexa Fluor 750 (or CD45-Pacific Orange, in which case CD15-Pacific Orange was omitted), pS6-Pacific Blue, pERK-Alexa Fluor 488 and pAKT-Alexa Fluor 647 or 2) CD15-Pacific Orange, CD34-Phycoerythrin-Texas Red, CD117-Phycoerythrin-Cyanin 5.5, CD45-Allophycocyanin-Alexa Fluor 750 or CD45-Pacific Blue, pSTAT3-Alexa Fluor 488 and pSTAT5-Phycoerythrin. The stained cells were washed twice with ice cold PBS containing 2% BSA and centrifuged at 800 g for 6 minutes at 4° C. The supernatant was discarded and cells re-suspended in 250 μL of chilled wash buffer for data acquisition. Stained cells were examined using either GALIOS flow cytometer (Beckman Coulter) or CYAN ADP (Beckman Coulter) equipped with 488 nm, 405 nm and 635 nm lasers to detect the degree of fluorescence. Data were analyzed using FCS Express (De Novo Software, CA) analysis software.
(§3) Specific phosphoprotein expression of pERK, pS6, pAKT, pSTAT5, and pSTAT3 was examined in seven discrete phenotypically defined populations based on 7-color immunophenotyping (FIG. 1). The percent of responding (phosphorprotein positive) cells for each of these populations was determined from individual single parameter histograms based on a fixed integration region set on the inhibitor treated control at about 3% positives.

[2] = system: pERK; details: healthy donor BM, mean ± SD;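 as to pERK S/N ratio: Phosphoprotein MFI normalized to lymphocyte MFI as internal negative control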
Description: as §1, §2, §3

[3] = system: pS6; details: healthy donor BM, mean ± SD
Description: as §1, §2, §3

[4] = system: pSTAT3; details: healthy donor BM, mean ± SD
Description: as §1, §2, §3

[5] = system: pSTAT5; details: for pSTAT5 Percent (%) Responding Cells, Mean / pSTAT5 S/N ratio: healthy donor BM, mean ± SD
Description: as §1, §2, §3

## Granulocyte-Macrophage Colony-Stimulating Factor [GM-CSF]
[1]; CD34^+ (CD34^+/CD117^+ cells)
  pAKT Percent (%) Responding Cells, Mean: 22.5 ± 23.4%
  pAKT S/N ratio: 3.2 ± 3.3
[1]; CD117^+ (CD34^−/CD117^+ cells)
  pAKT Percent (%) Responding Cells, Mean: 13.3 ± 23.7%
  pAKT S/N ratio: 2.2 ± 1.3
[1]; G1, immature myeloid cells
  pAKT Percent (%) Responding Cells, Mean: 11.2 ± 19.8%
  pAKT S/N ratio: 3.0 ± 1.6
[1]; G2, intermediate myeloid cells
  pAKT Percent (%) Responding Cells, Mean: 17.6 ± 26.1%
  pAKT S/N ratio: 3.2 ± 1.6
[1]; G3, mature myeloid cells
  pAKT Percent (%) Responding Cells, Mean: 17.5 ± 26.0%
  pAKT S/N ratio: 3.7 ± 1.9
[1]; Mono, monocytes
  pAKT Percent (%) Responding Cells, Mean: 17.6 ± 27.3%
  pAKT S/N ratio: 3.6 ± 2.3
[1]; Table 7 comparison value
  pAKT, Normal Sample: 16.2
[2]; CD34^+ (CD34^+/CD117^+ cells)
  pERK Percent (%) Responding Cells, Mean: 30.1% and 30.1 ± 11.5%
  pERK S/N ratio: 10.6 ± 4.4
[2]; CD117^+ (CD34^−/CD117^+ cells)
  pERK S/N ratio: 3.8 ± 0.4
[2]; G1, immature myeloid cells
  pERK Percent (%) Responding Cells, Mean: 53.9% and 53.9 ± 20.8%
  pERK S/N ratio: 6.2 ± 1.8
[2]; G2, intermediate myeloid cells
  pERK Percent (%) Responding Cells, Mean: 91.5 ± 16.0%
  pERK S/N ratio: 9.4 ± 2.4
[2]; G3, mature myeloid cells
  pERK Percent (%) Responding Cells, Mean: 91.5% and 90.7 ± 15.0%
  pERK S/N ratio: 11.3 ± 3.1
[2]; Mono, monocytes
  pERK Percent (%) Responding Cells, Mean: 52.0 ± 22.6%
  pERK S/N ratio: 11.4 ± 4.5
[3]; CD34^+ (CD34^+/CD117^+ cells)
  pS6 Percent (%) Responding Cells, Mean: 60.1% and 60.1 ± 14.1%
  pS6 S/N ratio: 35.7 ± 31.7
[3]; CD117^+ (CD34^−/CD117^+ cells)
  pS6 Percent (%) Responding Cells, Mean: 38.5 ± 11.5%
  pS6 S/N ratio: 52.7 ± 44.0
[3]; G1, immature myeloid cells
  pS6 Percent (%) Responding Cells, Mean: 3.4 ± 1.3%
  pS6 S/N ratio: 5.1 ± 3.2
[3]; G2, intermediate myeloid cells
  pS6 Percent (%) Responding Cells, Mean: 11.3 ± 15.9%
  pS6 S/N ratio: 5.7 ± 3.7
[3]; G3, mature myeloid cells
  pS6 Percent (%) Responding Cells, Mean: 8.3 ± 7.0%
  pS6 S/N ratio: 5.7 ± 3.6
[3]; Mono, monocytes
  pS6 Percent (%) Responding Cells, Mean: 76.9 ± 11.8%
  pS6 S/N ratio: 25.8 ± 20.8
[4]; CD34^+ (CD34^+/CD117^+ cells)
  pSTAT3 Percent (%) Responding Cells, Mean: 10.4 ± 7.9%
  pSTAT3 S/N ratio: 1.7 ± 0.2
[4]; CD117^+ (CD34^−/CD117^+ cells)
  pSTAT3 Percent (%) Responding Cells, Mean: 7.9 ± 8.7%
  pSTAT3 S/N ratio: 2.6 ± 0.8
[4]; G1, immature myeloid cells
  pSTAT3 Percent (%) Responding Cells, Mean: 58.7% and 58.7 ± 39.9%
  pSTAT3 S/N ratio: 6.8 ± 2.5
[4]; G2, intermediate myeloid cells
  pSTAT3 Percent (%) Responding Cells, Mean: 59.1 ± 30.4%
  pSTAT3 S/N ratio: 7.3 ± 2.1
[4]; G3, mature myeloid cells
  pSTAT3 Percent (%) Responding Cells, Mean: 76.0 ± 30.8%
  pSTAT3 S/N ratio: 8.8 ± 2.7
[4]; Mono, monocytes
  pSTAT3 S/N ratio: 2.3 ± 0.3
[5]; CD34^+ (CD34^+/CD117^+ cells)
  pSTAT5 Percent (%) Responding Cells, Mean: 74.7%
  pSTAT5 S/N ratio: 19.8 ± 9.7
[5]; CD117^+ (CD34^−/CD117^+ cells)
  pSTAT5 Percent (%) Responding Cells, Mean: 58.2 ± 11.8%
[5]; G2, intermediate myeloid cells
  pSTAT5 Percent (%) Responding Cells, Mean: 98.8 ± 0.4%
  pSTAT5 S/N ratio: 18.3 ± 5.5
[5]; Mono, monocytes
  pSTAT5 S/N ratio: 14.7 ± 4.5
[5]; Table 7 comparison value, matches percent responding CD34^+ cells of Tables 1-5
  pSTAT5, Normal Sample: 74.7 and 75.1
